Measured values from PubChem BioAssay AID248 (DTP/NCI, 2004).
“And” between values parts separate entries of the source, which are not always exact repeats. Equal values may be shown once. Inconclusive results and toxic doses are left out. Cut-off read from the data, not from the text of the source: active = T/C of 150% or more; inactive = T/C below 125%.

Tested on: L1210 leukemia ip in BDF1 mice, survival T/C
Experiment: NCI In Vivo Anticancer Drug Screen. Data for tumor model L1210 Leukemia (intraperitoneal) in B6D2F1 (BDF1) mice
Details: endpoint: mean survival time, higher = longer survival
Procedure, shortened: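 Tumor cells were implanted, animals were treated, and survival was followed. The result divides the treated measurement by the vehicle-control measurement.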

[1] = dose: 400.0 mg/kg/injection, schedule: Q01DX001 (ip), vehicle: carboxymethylcellulose (CMC)
[2] = dose: 100.0 mg/kg/injection, schedule: Q04DX003 (ip), vehicle: Klucel (hydroxypropylcellulose) (HPC)
[3] = dose: 200.0 mg/kg/injection, schedule: Q04DX003 (ip), vehicle: Klucel (hydroxypropylcellulose) (HPC)
[4] = dose: 100.0 mg/kg/injection, schedule: Q01DX001 (ip), vehicle: Klucel (hydroxypropylcellulose) (HPC)
[5] = dose: 50.0 mg/kg/injection, schedule: Q01DX009 (ip), vehicle: Klucel (hydroxypropylcellulose) (HPC)
[6] = dose: 100.0 mg/kg/injection, schedule: Q01DX009 (ip), vehicle: Klucel (hydroxypropylcellulose) (HPC)
[7] = dose: 200.0 mg/kg/injection, schedule: Q01DX009 (ip), vehicle: Klucel (hydroxypropylcellulose) (HPC)
[8] = dose: 400.0 mg/kg/injection, schedule: Q04DX003 (ip), vehicle: Klucel (hydroxypropylcellulose) (HPC)
[9] = dose: 200.0 mg/kg/injection, schedule: Q01DX001 (ip), vehicle: Klucel (hydroxypropylcellulose) (HPC)
[10] = dose: 400.0 mg/kg/injection, schedule: Q01DX001 (ip), vehicle: Klucel (hydroxypropylcellulose) (HPC)
[11] = dose: 100.0 mg/kg/injection, schedule: Q01DX001 (ip), vehicle: saline
[12] = dose: 200.0 mg/kg/injection, schedule: Q01DX001 (ip), vehicle: saline
[13] = dose: 400.0 mg/kg/injection, schedule: Q01DX001 (ip), vehicle: saline
[14] = dose: 100.0 mg/kg/injection, schedule: Q01DX001 (ip), vehicle: saline with Tween-80
[15] = dose: 200.0 mg/kg/injection, schedule: Q01DX001 (ip), vehicle: saline with Tween-80
[16] = dose: 400.0 mg/kg/injection, schedule: Q01DX001 (ip), vehicle: saline with Tween-80

Measured: T/C

CC(=O)Nc1cc(F)cc(F)c1Br
inactive: dose: 100.0 mg/kg/injection, schedule: Q01DX001 (ip), vehicle: carboxymethylcellulose (CMC) 105 % of control | dose: 200.0 mg/kg/injection, schedule: Q01DX001 (ip), vehicle: carboxymethylcellulose (CMC) 102 % of control | [1] 112 % of control

Cn1c2c(sc1=O)CCC2
inactive: dose: 50.0 mg/kg/injection, schedule: Q01DX Z (ip), vehicle: methylcellulose (MC) 102 % of control and 105 % of control | dose: 100.0 mg/kg/injection, schedule: Q01DX001 (ip), vehicle: other 103 % of control | dose: 100.0 mg/kg/injection, schedule: Q01DX Z (ip), vehicle: methylcellulose (MC) 111 % of control | [2] 99 % of control | dose: 200.0 mg/kg/injection, schedule: Q01DX001 (ip), vehicle: other 111 % of control | dose: 200.0 mg/kg/injection, schedule: Q01DX Z (ip), vehicle: methylcellulose (MC) 93 % of control | [3] 100 % of control | dose: 400.0 mg/kg/injection, schedule: Q01DX001 (ip), vehicle: other 105 % of control

C=CCN1C(=O)C(c2ccccc2)C2(CCN(C)CC2)C1=O (configuration not stated)
inactive: dose: 25.0 mg/kg/injection, schedule: Q01DX001 (ip), vehicle: Klucel (hydroxypropylcellulose) (HPC) 108 % of control | dose: 50.0 mg/kg/injection, schedule: Q01DX001 (ip), vehicle: Klucel (hydroxypropylcellulose) (HPC) 108 % of control | [4] 98 % of control and 104 % of control

CCOC(=O)C(CCc1ccncc1)c1ccccc1 (configuration not stated)
inactive: dose: 111.0 mg/kg/injection, schedule: Q01DX Z (ip), vehicle: methylcellulose (MC) 94 % of control | dose: 166.0 mg/kg/injection, schedule: Q01DX Z (ip), vehicle: methylcellulose (MC) 102 % of control | dose: 250.0 mg/kg/injection, schedule: Q01DX Z (ip), vehicle: methylcellulose (MC) 96 % of control

CN(C)C(=O)C1Cc2ccccc2CC1C(=O)N(C)C (configuration not stated)
inactive: [5] 97 % of control | [6] 97 % of control | [2] 101 % of control | [7] 101 % of control | [3] 102 % of control | [8] 97 % of control

O=C(c1ccc(C(=O)N2CC2)cc1)N1CC1
inactive: dose: 5.0 mg/kg/injection, schedule: Q04DX003 (ip), vehicle: carboxymethylcellulose (CMC) 106 % of control | dose: 10.0 mg/kg/injection, schedule: Q04DX003 (ip), vehicle: carboxymethylcellulose (CMC) 97 % of control | dose: 20.0 mg/kg/injection, schedule: Q01DX001 (ip), vehicle: carboxymethylcellulose (CMC) 103 % of control | dose: 20.0 mg/kg/injection, schedule: Q04DX003 (ip), vehicle: carboxymethylcellulose (CMC) 94 % of control

O=C(O)CCc1ccc(-c2ccccc2)[nH]1
inactive: [4] 106 % of control | [9] 104 % of control | [10] 106 % of control

CC(C)=CC(=O)Nc1cccc(O)c1
inactive: dose: 100.0 mg/kg/injection, schedule: Q01DX009 (ip), vehicle: saline with Tween-80 96 % of control | dose: 200.0 mg/kg/injection, schedule: Q01DX009 (ip), vehicle: saline with Tween-80 91 % of control | dose: 400.0 mg/kg/injection, schedule: Q01DX009 (ip), vehicle: saline with Tween-80 92 % of control

CN(CCNC(=O)NCCCCCCNC(=O)NCCN(C)c1ccccc1)c1ccccc1
inactive: dose: 100.0 mg/kg/injection, schedule: Q04DX002 (ip), vehicle: Klucel (hydroxypropylcellulose) (HPC) 105 % of control | dose: 200.0 mg/kg/injection, schedule: Q04DX002 (ip), vehicle: Klucel (hydroxypropylcellulose) (HPC) 97 % of control | dose: 400.0 mg/kg/injection, schedule: Q04DX002 (ip), vehicle: Klucel (hydroxypropylcellulose) (HPC) 108 % of control

CCOC(=O)N1C=Cc2c(c3ccccc3n2C)N1C(=O)OCC
inactive: [11] 93 % of control | [12] 104 % of control | [13] 100 % of control

Cc1ccc(NC(=O)OCCOc2ccc([N+](=O)[O-])cc2)c([N+](=O)[O-])c1
inactive: [5] 102 % of control | [6] 91 % of control | [2] 97 % of control | [7] 91 % of control | [3] 102 % of control | [8] 95 % of control

ClC(Cl)=C(c1ccc(Cl)cc1)c1ccc(Cl)cc1
inactive: [11] 101 % of control | dose: 100.0 mg/kg/injection, schedule: Q04DX002 (ip), vehicle: gum acacia 114 % of control | [12] 110 % of control | dose: 200.0 mg/kg/injection, schedule: Q04DX002 (ip), vehicle: gum acacia 91 % of control | [13] 98 % of control | dose: 400.0 mg/kg/injection, schedule: Q04DX002 (ip), vehicle: gum acacia 100 % of control

COC1C(O)C(CO)OC1n1cnc2c(=S)nc(N)[nH]c21 (configuration not stated)
active: dose: 266.0 mg/kg/injection, schedule: Q01DX001 (ip), vehicle: carboxymethylcellulose (CMC) 153 % of control | [1] 157 % of control | dose: 600.0 mg/kg/injection, schedule: Q01DX001 (ip), vehicle: carboxymethylcellulose (CMC) 153 % of control

O=C(Nc1ccc(Cl)cc1)SCCSC(=O)Nc1ccc(Cl)cc1
inactive: dose: 100.0 mg/kg/injection, schedule: Q04DX002 (ip), vehicle: other 97 % of control and 101 % of control | dose: 100.0 mg/kg/injection, schedule: Q04DX003 (ip), vehicle: other 98 % of control and 105 % of control | dose: 200.0 mg/kg/injection, schedule: Q04DX002 (ip), vehicle: other 93 % of control and 101 % of control | dose: 200.0 mg/kg/injection, schedule: Q04DX003 (ip), vehicle: other 94 % of control and 89 % of control | dose: 400.0 mg/kg/injection, schedule: Q04DX002 (ip), vehicle: other 95 % of control and 90 % of control | dose: 400.0 mg/kg/injection, schedule: Q04DX003 (ip), vehicle: other 95 % of control and 91 % of control

c1ccc2c(c1)C1CCCCC2c2ccccc21
inactive: [4] 102 % of control | [9] 97 % of control | [10] 100 % of control

CCCCCCOC(=O)C(N)Cc1ccc(N(CCCl)CCCl)cc1 (configuration not stated)
inactive: dose: 2.8 mg/kg/injection, schedule: Q01DX009 (ip), vehicle: other 110 % of control | dose: 5.6 mg/kg/injection, schedule: Q01DX001 (ip), vehicle: other 110 % of control | dose: 5.6 mg/kg/injection, schedule: Q01DX009 (ip), vehicle: other 106 % of control | dose: 11.25 mg/kg/injection, schedule: Q01DX001 (ip), vehicle: other 110 % of control | dose: 11.25 mg/kg/injection, schedule: Q01DX009 (ip), vehicle: other 116 % of control | dose: 22.5 mg/kg/injection, schedule: Q01DX001 (ip), vehicle: other 121 % of control

CCCCCCCCCCC(=O)N(CCC)CCC
inactive: dose: 100.0 mg/kg/injection, schedule: Q01DX009 (ip), vehicle: carboxymethylcellulose (CMC) 97 % of control | dose: 100.0 mg/kg/injection, schedule: Q04DX002 (ip), vehicle: carboxymethylcellulose (CMC) 91 % of control | dose: 200.0 mg/kg/injection, schedule: Q01DX009 (ip), vehicle: carboxymethylcellulose (CMC) 93 % of control and 92 % of control | dose: 200.0 mg/kg/injection, schedule: Q04DX002 (ip), vehicle: carboxymethylcellulose (CMC) 93 % of control | dose: 400.0 mg/kg/injection, schedule: Q01DX009 (ip), vehicle: carboxymethylcellulose (CMC) 86 % of control | dose: 400.0 mg/kg/injection, schedule: Q04DX002 (ip), vehicle: carboxymethylcellulose (CMC) 88 % of control

CC(C)/C(=N\[N+](C)(C)C)c1ccccc1
inactive: dose: 18.8 mg/kg/injection, schedule: Q04DX003 (ip), vehicle: saline 97 % of control | dose: 37.5 mg/kg/injection, schedule: Q04DX003 (ip), vehicle: saline 100 % of control | dose: 75.0 mg/kg/injection, schedule: Q01DX001 (ip), vehicle: saline 103 % of control | dose: 75.0 mg/kg/injection, schedule: Q04DX003 (ip), vehicle: saline 100 % of control

COC(=O)CCC(NC(=O)c1ccc(NCc2cnc3nc(N)n(C)c(=O)c3n2)cc1)C(=O)OC (configuration not stated)
inactive: [14] 106 % of control | [15] 104 % of control | [16] 101 % of control

O=S(=O)(CCCS(=O)(=O)Nc1ccccc1)Nc1ccccc1
inactive: [14] 103 % of control | [15] 97 % of control | [16] 90 % of control

NC1CCCCCCCC1
inactive: dose: 75.0 mg/kg/injection, schedule: Q01DX001 (ip), vehicle: acetone 95 % of control | dose: 150.0 mg/kg/injection, schedule: Q01DX001 (ip), vehicle: acetone 98 % of control
